Results taken from patent publication US20090221560A1, “Pharmaceutical Formulation” (priority 2005, published 2009).

Tests used:
rats [1] = assay: Conditioned avoidance response in rats; assay type: in vivo; details: Rattus norvegicus, read-out: ED50, inhibition of conditioned avoidance response
rats [2] = assay: Catalepsy induction in rats; assay type: in vivo; details: at the low dose inhibiting conditioned avoidance response
dopamine D-2 receptor = dopamine D-2 receptor (Homo sapiens, UniProt P14416); assay: 3H-spiperone binding assay
Sequence of dopamine D-2 receptor (P14416 whole entry): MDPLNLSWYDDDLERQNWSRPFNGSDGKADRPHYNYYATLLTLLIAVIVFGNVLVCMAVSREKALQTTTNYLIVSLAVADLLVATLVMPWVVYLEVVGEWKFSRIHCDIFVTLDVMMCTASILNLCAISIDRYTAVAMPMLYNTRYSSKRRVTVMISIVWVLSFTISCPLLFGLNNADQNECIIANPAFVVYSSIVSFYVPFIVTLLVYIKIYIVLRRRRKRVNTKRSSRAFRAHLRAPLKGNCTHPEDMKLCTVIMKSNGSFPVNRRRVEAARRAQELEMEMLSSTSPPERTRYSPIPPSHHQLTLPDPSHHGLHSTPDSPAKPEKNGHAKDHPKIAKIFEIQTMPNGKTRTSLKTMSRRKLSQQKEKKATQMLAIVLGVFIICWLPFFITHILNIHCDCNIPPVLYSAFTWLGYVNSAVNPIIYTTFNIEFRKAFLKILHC
Text: (§1) In addition, the compound of formula I and of formula II also show good activity in in vitro binding assays involving binding to neural receptors. […] The compounds are also active at the 5-HT-IC receptor.

5-HT-2 receptor = biological target: T1, 5-HT-2 receptor (Rattus norvegicus, UniProt P14842); assay: Displacement of H-spiperone from binding sites in the rat frontal cortex
T1 construct: from tissue; host or cells: rat frontal cortex
T1 sequence (P14842 whole entry): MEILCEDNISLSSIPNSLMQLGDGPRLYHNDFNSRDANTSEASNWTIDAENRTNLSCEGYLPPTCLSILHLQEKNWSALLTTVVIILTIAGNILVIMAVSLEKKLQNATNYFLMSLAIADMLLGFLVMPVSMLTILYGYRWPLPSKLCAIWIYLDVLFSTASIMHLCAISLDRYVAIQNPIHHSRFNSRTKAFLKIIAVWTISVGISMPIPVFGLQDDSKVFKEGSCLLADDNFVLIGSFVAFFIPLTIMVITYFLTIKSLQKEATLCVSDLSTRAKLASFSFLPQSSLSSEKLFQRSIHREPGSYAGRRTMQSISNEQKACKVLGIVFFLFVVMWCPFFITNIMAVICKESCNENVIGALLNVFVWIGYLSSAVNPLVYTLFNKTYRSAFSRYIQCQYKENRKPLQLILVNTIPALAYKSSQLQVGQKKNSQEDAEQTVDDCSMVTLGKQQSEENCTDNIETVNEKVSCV
Text: as §1

5-HT-IC receptor = biological target: T2, 5-HT-IC receptor (Homo sapiens, UniProt P28335); assay: Activity at the 5-HT-IC receptor; assay type: binding
T2 sequence (P28335 33-458): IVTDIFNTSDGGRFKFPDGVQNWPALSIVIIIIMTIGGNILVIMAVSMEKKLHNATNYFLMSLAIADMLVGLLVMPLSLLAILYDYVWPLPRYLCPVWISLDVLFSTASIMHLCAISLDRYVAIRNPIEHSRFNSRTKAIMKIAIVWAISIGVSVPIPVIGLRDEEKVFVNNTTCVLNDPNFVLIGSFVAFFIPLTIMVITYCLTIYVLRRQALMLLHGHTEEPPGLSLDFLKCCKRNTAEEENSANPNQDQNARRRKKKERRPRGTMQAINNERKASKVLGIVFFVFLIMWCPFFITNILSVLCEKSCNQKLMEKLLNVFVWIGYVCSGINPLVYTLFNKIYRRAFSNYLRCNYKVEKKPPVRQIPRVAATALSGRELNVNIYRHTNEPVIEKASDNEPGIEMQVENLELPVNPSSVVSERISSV
Text: as §1

SMILES | ED50 (rats [1]) [mg/kg] | Catalepsy (rats [2]) | IC50 (dopamine D-2 receptor) [µM] | Concentration displacing H-spiperone at the 5-HT-2 receptor (5-HT-2 receptor) | Activity at the 5-HT-IC receptor (5-HT-IC receptor)
Cc1cc2c(s1)Nc1ccccc1N=C2N1CC[N+](C)(CCl)CC1 [formula I, 2-methyl-4-(4-methyl-4-chloromethyl-1-piperazinyl)-10H-thieno-[2,3-b][1,5]-benzodiazepine] | ~5 | without inducing catalepsy | < 1 | low nanomolar concentrations | active
CC(=O)N1CCN(C2=Nc3ccccc3Nc3sc(C)cc32)CC1 [formula II, 2-methyl-4-(4-acetyl-1-piperazinyl)-10H-thieno-[2,3-b][1,5]-benzodiazepine] | ~5 | without inducing catalepsy | < 1 | low nanomolar concentrations | active
